Data from publication PMC9506480, “Synthesis and Evaluation of Antiproliferative Activity, Topoisomerase IIα Inhibition, DNA Binding and Non-Clinical Toxicity of New Acridine–Thiosemicarbazone Derivatives” (Pharmaceuticals, 2022).
Entries after “also recorded” stand apart in the source; their conditions may differ. Read-outs that look alike come from different tables or passages of the source.

What was measured:
[1] = tested on: HCT116 (human colon carcinoma); assay: Alamar blue cytotoxicity assay, HCT116; assay type: cell-based; settings: HCT-116, 72 h incubation
Protocol: (§1) The in vitro cytotoxic activity of the compounds (Table 1) was evaluated against cancer cell lines HCT116 (human colon carcinoma), HepG2 (human hepatocellular carcinoma), B16F10 (murine melanoma carcinoma) and non-cancerous cell line MRC-5 (human lung fibroblast) using the Alamar blue assay after 72 h of incubation; doxorubicin (DOX) was used as a positive control. The unsubstituted derivatives on the acridine cores were encoded as CL, and the disubstituted derivatives as DL.
(§2) The human cancer cell lines HCT116 (colon carcinoma) and HepG2 (hepatocellular carcinoma), the mouse cancer cell line B16-F10 (melanoma), and the non-cancerous human cell line MRC-5 (lung fibroblast) were obtained from the American Type Culture Collection (ATCC, Manassas, VA, USA) and cultured according to the ATCC animal cell culture guide. All cell lines tested negative for mycoplasma using a mycoplasma stain kit.
(§3) Cell viability was measured using the Alamar blue assay, as previously described. Cells were seeded in 96-well plates for all experiments. The compounds were dissolved in dimethyl sulfoxide (DMSO, Sigma-Aldrich) and added to each well in eight serial concentrations ranging from 0.19 to 25 μg/mL. As a positive control, doxorubicin was used. After 72 h of treatment, 20 μL of resazurin (0.312 mg/mL) was added to each well. A SpectraMax 190 Micro-plate Reader was used to measure absorbances at 570 and 595 nm (Molecular Devices, Sunnyvale, CA, USA). Nonlinear regression with 95% confidence intervals (CI 95%) was used to calculate the inhibitory concentration of 50% (IC50) using GraphPad Prism software (Intuitive Software for Science; San Diego, CA, USA).

[2] = tested on: HepG2 (human hepatocellular carcinoma); assay: Alamar blue cytotoxicity assay, HepG2; assay type: cell-based; settings: 72 h incubation
Protocol: as §1, §2, §3

[3] = tested on: MRC-5 (human lung fibroblast); assay: Alamar blue cytotoxicity assay, non-cancerous MRC-5; assay type: cell-based; settings: MRC5, 72 h incubation, non-cancerous cell
Protocol: as §1, §2, §3

[4] = biological target: T1, recombinant human topoisomerase IIα (p170) (Homo sapiens, UniProt P11388); assay: Human topoisomerase IIα inhibition assay (pUC19 plasmid relaxation); assay type: biochemical; settings: for inhibition of Topo IIα enzymatic activity (in words) / % of enzyme inhibition: 100 µM; for % of enzyme inhibition / inhibition at 100 µM: densitometry, relative to positive control mAMSA, '-' = no inhibition; for inhibition at 100 µM: read-out: % of enzyme inhibition
T1 construct: purchased Sigma-Aldrich
T1 sequence (P11388 whole entry): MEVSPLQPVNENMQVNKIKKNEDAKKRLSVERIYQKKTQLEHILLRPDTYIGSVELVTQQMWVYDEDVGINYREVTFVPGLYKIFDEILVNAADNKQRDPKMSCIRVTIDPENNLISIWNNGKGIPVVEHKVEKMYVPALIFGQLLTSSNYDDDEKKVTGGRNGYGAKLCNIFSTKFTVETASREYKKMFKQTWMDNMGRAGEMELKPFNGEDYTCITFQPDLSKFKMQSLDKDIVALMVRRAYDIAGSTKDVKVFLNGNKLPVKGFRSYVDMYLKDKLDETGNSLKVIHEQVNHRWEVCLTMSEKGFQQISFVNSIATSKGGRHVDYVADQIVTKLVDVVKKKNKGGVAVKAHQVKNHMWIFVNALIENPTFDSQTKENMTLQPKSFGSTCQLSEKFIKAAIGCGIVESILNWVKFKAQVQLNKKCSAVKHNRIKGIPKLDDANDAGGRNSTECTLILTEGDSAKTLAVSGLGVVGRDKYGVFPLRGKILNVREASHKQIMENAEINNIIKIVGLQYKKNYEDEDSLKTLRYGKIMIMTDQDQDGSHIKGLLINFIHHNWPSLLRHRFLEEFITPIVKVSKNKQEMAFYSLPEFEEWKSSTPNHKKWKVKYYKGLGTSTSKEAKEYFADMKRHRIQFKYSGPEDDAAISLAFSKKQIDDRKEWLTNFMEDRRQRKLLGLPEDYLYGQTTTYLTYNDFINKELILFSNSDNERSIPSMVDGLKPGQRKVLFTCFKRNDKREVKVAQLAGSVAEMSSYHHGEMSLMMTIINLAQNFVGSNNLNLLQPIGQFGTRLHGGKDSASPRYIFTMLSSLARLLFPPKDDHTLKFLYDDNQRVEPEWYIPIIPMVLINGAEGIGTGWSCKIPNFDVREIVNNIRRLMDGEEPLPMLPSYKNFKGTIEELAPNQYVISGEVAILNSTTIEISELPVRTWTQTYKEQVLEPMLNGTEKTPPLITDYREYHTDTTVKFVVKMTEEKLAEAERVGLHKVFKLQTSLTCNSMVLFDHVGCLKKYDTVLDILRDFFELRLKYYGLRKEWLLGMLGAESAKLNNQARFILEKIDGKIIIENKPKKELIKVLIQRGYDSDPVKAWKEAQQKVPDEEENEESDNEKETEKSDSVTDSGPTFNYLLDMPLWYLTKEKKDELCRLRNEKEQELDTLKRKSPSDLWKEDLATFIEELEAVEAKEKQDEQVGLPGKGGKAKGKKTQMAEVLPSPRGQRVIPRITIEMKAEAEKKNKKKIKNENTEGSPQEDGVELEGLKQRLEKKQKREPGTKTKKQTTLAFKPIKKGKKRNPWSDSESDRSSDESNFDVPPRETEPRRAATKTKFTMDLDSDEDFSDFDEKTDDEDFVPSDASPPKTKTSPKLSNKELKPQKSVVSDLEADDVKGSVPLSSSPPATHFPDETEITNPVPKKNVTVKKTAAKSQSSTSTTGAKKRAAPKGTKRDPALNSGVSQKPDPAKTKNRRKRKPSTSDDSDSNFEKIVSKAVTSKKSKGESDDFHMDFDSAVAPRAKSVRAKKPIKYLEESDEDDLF
Excerpt: Several studies have shown the ability of acridines to inhibit topoisomerases, being considered the main mechanism responsible for the antiproliferative activities of this scaffold. The possibility of the new acridine derivatives to inhibit Topo IIα in its biological function of DNA double-strand relaxation was investigated in this work. This enzymatic inhibition can be accompanied by the presence of a supercoiled or relaxed DNA band, performed with the pUC19 plasmid, as shown in Figure 2. In this study, mAMSA was used as a positive inhibition control.
For testing the ability of Topo IIα inhibition, the compounds were evaluated in the DNA plasmid relaxation assay. This test consists of evaluating the Topo IIα enzyme activity in the absence and presence of the compound, followed by electrophoresis analysis, as previously described by Almeida et al. (2016). Briefly, 100 ng pUC19 DNA plasmid (Sigma-Aldrich) and 4.0 units of recombinant human (p170) topoisomerase II (Sigma-Aldrich) in relaxation buffer without or with tested compounds were incubated for 30 min at 37 °C. The tested concentrations were […], and amsacrine (mAMSA) was used as a positive control. Reactions were terminated with 1% SDS and digested with proteinase K. Then, the reaction products were analyzed by electrophoresis gel stained with ethidium bromide and photographed under UV light. Quantitative evaluation (% of enzyme inhibition by compounds about the positive control mAMSA) of the gel bands corresponding to supercoiled DNA was performed by densitometry using image-processing software (Scion Image, version Beta 4.0.2.) according to Gouveia et al. (2018).
Figure 2 Effects of mAMSA and its acridine derivatives on topoisomerase IIα activity. Effects of derivatives and positive control on the inhibition of human topoisomerase IIα. Native supercoiled pUC19 was incubated for 30 min at 37 °C with […] of human Topo IIα in the absence (lane 2) or presence of ligands at a concentration 100 μM. Inhibition of Topo IIα-induced DNA relaxation by mAMSA (lane 3) was used as a positive control. DNA samples were run on an agarose gel followed by ethidium bromide staining.

K-562 cells = assay: MTT cytotoxicity assay on leukemic cells, K562; assay type: cell-based; settings: Homo sapiens
Protocol: (§4) K562 (human erythroleukemic) and its multidrug-resistant counterpart, K562-Lucena 1, were obtained from the Tumor Immunology Laboratory (Federal University of Rio de Janeiro) (Rumjanek et al., 2001) and were cultured as recommended by Daflon-Yunes et al., 2013 [93, 106, 107].
(§5) CL-07, DL-01 and DL-08 compounds were evaluated for cell viability on K562 and K562-Lucena 1 cells using the colorimetric tetrazolium method (Mosmann, 1983). Cells were plated in 96-well plates. Compounds were dissolved in 1% (v/v) DMSO and RPMI-1640 medium (Sigma-Aldrich) in five serial concentrations from 1 to 50 µg/mL and were later added to each well and incubated for 72 h at 37 °C in a 5% CO2 humidified environment. As a positive control, 1 µM staurosporine was used. Then, the cells were treated with 20 µL of 5 mg/mL 3-(4,5-dimethylthiazol-2yl)-2,5-diphenyltetrazolium bromide solution (MTT solution in phosphate buffer solution) for 3 h. At the end of treatment, absorbances at 562 nm were measured using an iMark™ Microplate Absorbance Reader (iMark™, Hercules, CA, USA). Half-inhibitory concentration (IC50) was obtained by nonlinear regression with 95% confidence intervals (CI 95%) using GraphPad Prism software (Intuitive Software for Science; San Diego, CA, USA).

K562-Lucena 1 = assay: MTT cytotoxicity assay on resistant leukemic cells, K562-Lucena 1; assay type: cell-based, human; settings: for IC50: Homo sapiens, K562-Lucena 1, MTT, 72 h, multidrug-resistant
Protocol: as §4, §5

[5] = MTT, 72 h, read-out: IC50 K-562
[6] = range over both cell lines and both compounds, read-out: IC50 on leukemic cells (K-562 and K-562 Lucena 1)

SMILES	IC50 [1] [µM]	IC50 [2] [µM]	IC50 [3] [µM]	inhibition of Topo IIα enzymatic activity (in words) [4]	% of enzyme inhibition [4] [%]	inhibition at 100 µM [4] [%]	IC50 (K-562 cells; [5]) [µM]	IC50 (K-562 cells; [6]) [µM]	IC50 (K562-Lucena 1) [µM]	selectivity K562-Lucena 1 versus MRC-5 (K562-Lucena 1; more selective than MRC-5) [times]
COc1ccc2nc3cc(Cl)ccc3c(NC(=S)N/N=C/c3cccc(O)c3)c2c1 [DL-08, (E)-N-(6-chloro-2-methoxyacridin-9-yl)-2-(3-hydroxybenzylidene)hydrazine-1-carbothioamide]	24.2	21.3	14.4	able to inhibit the enzymatic activity	79	> 74	17.3	11.5 to 17.3	17.1	–
Oc1ccc(/C=N/NC(=S)Nc2c3ccccc3nc3ccccc23)cc1 [CL-07, (E)-N-(acridin-9-yl)-2-(4-hydroxybenzylidene)hydrazine-1-carbothioamide]	39.7	50.7	43.4	did not show inhibition capacity; also recorded: could not inhibit Topo IIα	–	–	45.5	–	43.4	–
COc1ccc2nc3cc(Cl)ccc3c(NC(=S)N/N=C/c3ccccc3)c2c1 [DL-01, (E)-2-benzylidene-N-(6-chloro-2-methoxyacridin-9-yl)hydrazine-1-carbothioamide]	> 60	21.9	37	able to inhibit the enzymatic activity	77	> 74	11.5	11.5 to 17.3	16.5	2
